The values that follow come from patent US7157092B1, “Acyl pseudodipeptides, preparation method and pharmaceutical compositions containing same” (Om Pharma, priority 1998, dated 2007).

The test system of one data set is UreB 1-569. The data set can be described thus: Nasal immunization with urease B subunit of Heliobacter pylori: serum anti-UreB immunoglobulins (ELISA). In kind it is in vivo, BALB/c mice. Particulars: 4 times weekly, 25 μg OM-294-DP alone.
Data set [1] deals with PROb syngenic tumoral line. The data set is described as follows: Treatment of peritoneal carcinoma induced by PROb cells in BDIX rats.
The nature of data set [2]: Weight change in rats of the peritoneal carcinoma study. Type of data set: in vivo, BDIX rats.
Data set [3] relates to LmCPb antigen. Type of data set: in vivo, CBA mice. Particulars: 2 injections LmCPb with adjuvant.
The subject of data set [4] is LmCPb antigen. The data set is described as follows: Primary response to single injection of Leishmania mexicana LmCPb antigen: lymph node cell proliferation (3H-TdR take-up). In kind it is in vivo, CBA mice. The note with it: single injection LmCPb 2 μg + 50 μg adjuvant. How it is done:
(§1) CBA mice were administered through the tail a single injection of LmCPb in a 2 μg dose either in combination or not with 50 μg of OM-294-MP adjuvant. A control group was administered one injection of physiological saline buffer (non immunized subjects). Eleven days later, cells of the inguinal and periaortic lymph nodes (groups of 3 mice each) were cultured and the proliferative response directed to the purified LmCPb antigen, to a preparation of whole amastigotes of Leishmania mexicana and to concanvalin A (ConA) was evaluated by measuring tritiated thymidine take-up (^3H-TdR). γ IFN and IL-4 cytokine production by lymph node lymphocytes rechallenged in vitro with LmCPb antigen of Leishmania mexicana or by amastigotes was equally determined by ELISA (MIF00 γ IFN & M4000 IL-4 kits, R&D Systems Europe Ltd, Abingdon, UK) using a sample of each culture supernatant of lymph node lymphocytes before addition of ^3H-TdR.
(§2) Values reported in the tables stand for the mean value±standard deviation (triplicate) expressed in cpm for ^3H-TdR take-up and the arithmetic mean±standard deviation (triplicate) expressed in pg per ml for cytokine production in supernatant fluids.
(§3) Antigen: LmCPb stock solution is prepared at a concentration of 40 μg/ml in PBS (2×).
(§4) The negative control consists of a PBS solution without antigen.
(§5) Antigen-adjuvant mixture: Adjuvants are maintained for 10 minutes at 37° C. before vortexing for 3 minutes. Then, the antigen (1 volume) and the adjuvant (1 volume) are mixed and vortexed briefly before being incubated for 20 minutes at 37° C., and finally the whole mixture is vortexed again for 3 minutes.

Data set [5] deals with LmCPb antigen. The data set can be described thus: Primary response to single injection of LmCPb antigen: in vitro cytokine secretion by lymph node lymphocytes (ELISA). Type of data set: in vivo, CBA mice. Particulars: single injection LmCPb + adjuvant. How it is done: as §1, §2, §3, §4, §5
Data set [6] concerns predendritic cells (DC-6). The note with it: DC-9 stage.
In data set [7] the test system is mouse bone marrow stem cells. The data set can be described thus: Bone marrow stem cell proliferation (XTT). Type of data set: cell-based, C57/BL6 mice. Particulars: 7 days incubation, FIG. 1. How it is done:
Two six-week old male C57/BL6 mice were killed by CO2 inhalation followed by cervical dislocation. The mice were washed with alcohol, and the skin of the posterior members was entirely removed. The hip, femur and tibia bones were removed by joint disruption. The flesh was grossly removed using a scalpel. The bones were cleaned and the bone ends were cut with scissors. The marrrow was extracted from the bone lumen by injecting three times 1 ml of Dulbecco's Modified Eagle Medium (DH medium) from the extremities which were cut with scissors. The cells were suspended in DH medium and centrifuged at 300×g for 5 minutes. The supernatant fluid was discarded and the stem cells were suspended in DH medium supplemented with 20% foetal calf serum (FCS) The cell concentration was adjusted to 500 000 cells/ml. […]
Proliferation is determined by measuring the oxydation of a chromogenic substrate (XTT) in mitochondria of viable cells.
7 days later, the microtiter plates are centrifuged for 5 minutes at 400×g, and 100 μl of the supernatant fluid are withdrawn and discarded. […] After 8 hour incubation at 37° C. under 8% CO2 in an incubator at 100% RH, the microtiter plates are read with a spectrophotometer at 480 nm against a standard at 690 nm.
The results are expressed as mean values (+standard deviation) by plotting a dose versus response curve. […]
A general note: Tetrazolium dyes change colour on reduction, which living cells bring about.

[8] abbreviates: 10 i.v. injections of 1 mg/kg from day 13.
[9] abbreviates: 10 i.v. injections of 1 mg/kg from day 13, dissection at D42.
[10] abbreviates: in vitro: Amastigotes 17 × 10^−6/ml.

Molecules are shown by their SMILES. Values joined by “and” are separate entries in the source; they are usually repeats but may differ in a detail not shown here. Equal entries are not always repeated. Where two headings read alike, the source gives them in different places.

For `CCCCCCCCCCCC(=O)O[C@H](CCCCCCCCCCC)CC(=O)NC(CCOP(=O)(O)O)C(=O)NCCCC(COP(=O)(O)O)NC(=O)C[C@H](O)CCCCCCCCCCC` (stereo partly drawn) [OM-294-DP, 3-[(R)-3-dodecanoyloxytetradecanoylamino]-4-oxo-5-aza-9-[(R)-3-hydroxytetradecanoylamino]decan-1,10-diol 1, 10-bis(dihydrogenphosphate)], the “anti-UreB antibodies in serum” value with UreB 1-569 is “No anti-UreB antibodies are detected”. In data set [1] (setting [8]), the “Volume ascite, mean ± σ” value was found to be 8 ± 23 ml/rat; the “Volume ascite, range” value is listed as 0–73 ml/rat; the “animals surviving at day 42 following injection of tumor cells” value was determined as 90%. Besides, in data set [1] (setting [9]), the “Number of rats suffering from carcinoma belonging to class 0 (no nodules visible)” value was found to be 4, the “Number of rats suffering from carcinoma belonging to class 1” value is 1, the “Number of rats suffering from carcinoma belonging to class 2” value was found to be 2 and the “Number of rats suffering from carcinoma belonging to class 3” value turned out to be 1. Moreover, the “Number of rats suffering from carcinoma belonging to class 4” value in data set [1] (setting [9]) is 2. Besides, the “anti-tumor activity in the peritoneal carcinoma model” value in data set [1] (rat, in vivo) is listed as “remarkable anti-tumor activity”. Besides, in data set [1] (versus NaCl), the “Effect of product on ascite volume, p (Variance analysis)” value was “p < 0.05” and the “Effect of product on carcinoma classification, p (Kruskall-Wallis test)” value was “p < 0.05”. The “extension of rat survival rate, p (log rank test)” value in data set [1] (versus control) was < 0.001. Also, in data set [2] (Day 0), the “Weight of rats (mean ± standard deviation)” value is on record as 277 ± 19. In addition, the “Weight of rats (mean ± standard deviation)” value in data set [2] (Day 13) was 310 ± 21. Besides, in data set [2] (Day 20), the “Weight of rats (mean ± standard deviation)” value is 304 ± 23. Besides, the “Weight of rats (mean ± standard deviation)” value in data set [2] (Day 29) is listed as 317 ± 24. In data set [2] (Day 41), the “Weight of rats (mean ± standard deviation)” value is reported as 327 ± 26. Also, the “effect on weight change in comparison to NaCl alone” value in data set [2] (rat, in vivo) was “no significant effect on weight change”. Further, in the data set with LmCPb antigen [3] (setting [10]), the IL-4 concentration is 130 pg/mL and 110 pg/mL; the “γ IFN concentration” value is >600 pg/mL. Also, the “γ IFN concentration” value with LmCPb antigen [3] (in vitro: Con A 5 μg/ml) was 1200 pg/mL and 1900 pg/mL. In the data set on LmCPb antigen [3] (in vitro: LmCPb 15 μg/ml), the IL-4 concentration is 110 pg/mL and 88 pg/mL; the “γ IFN concentration” value is 520 pg/mL and 360 pg/mL. Moreover, in the data set on LmCPb antigen [3] (in vitro: No stimulant), the IL-4 concentration is <8 pg/mL; the “γ IFN concentration” value was 460 pg/mL and 240 pg/mL.

`CCCCCCCCCCCC(=O)O[C@H](CCCCCCCCCCC)CC(=O)NC(CCOP(=O)(O)O)C(=O)NCCCC(CO)NC(=O)C[C@H](O)CCCCCCCCCCC` (stereo partly drawn) [OM-294-MP, 3-[(R)-3-dodecanoyloxytetradecanoylamino]-4-oxo-5-aza-9-[(R)-3-hydroxytetradecanoylamino]-decane-1,10-diol 1-dihydrogenphosphate]: the 3H-TdR take-up in the data set on LmCPb antigen [4] (in vitro: Amastigotes 1.9 × 10^−6/ml) stood at 44 ± 7 cpm × 10^−3/ml; in the data set with LmCPb antigen [4] (in vitro: Amastigotes 6 × 10^−6/ml), 79 ± 6 cpm × 10^−3/ml; in the data set with LmCPb antigen [4] (setting [10]), 119 ± 4 cpm × 10^−3/ml; with LmCPb antigen [4] (in vitro: Con A 5 μg/ml), 196 ± 10 cpm × 10^−3/ml; in the data set with LmCPb antigen [4] (in vitro: LmCPb 0.6 μg/ml), 19 ± 4 cpm × 10^−3/ml; in the data set on LmCPb antigen [4] (in vitro: LmCPb 1.7 μg/ml) it was 40 ± 4 cpm × 10^−3/ml. Further, the 3H-TdR take-up with LmCPb antigen [4] (in vitro: LmCPb 5 μg/ml) is 80 ± 5 cpm × 10^−3/ml; in the data set with LmCPb antigen [4] (in vitro: LmCPb 15 μg/ml), 140 ± 10 cpm × 10^−3/ml; with LmCPb antigen [4] (in vitro: No stimulant) it was 11 ± 2 cpm × 10^−3/ml. Besides, the “γ IFN production” value in the data set with LmCPb antigen [5] (in vitro: Amastigotes) is 320 pg/mL; in the data set with LmCPb antigen [5] (in vitro: Con A 5 μg/ml), >1800 pg/mL; in the data set on LmCPb antigen [5] (in vitro: LmCPb 15 μg/ml), 480 pg/mL; in the data set with LmCPb antigen [5] (in vitro: No stimulant), 25 pg/mL. For the same molecule, the IL-4 production is 65 pg/mL with LmCPb antigen [5] (in vitro: Amastigotes 17 × 10^−5/ml), 360 pg/mL with LmCPb antigen [5] (in vitro: Con A 5 μg/ml), 130 pg/mL in the data set with LmCPb antigen [5] (in vitro: LmCPb 15 μg/ml) and <8 pg/mL with LmCPb antigen [5] (in vitro: No challenge). In data set [6] (FIG. 6), the “CD40 expression, % of mean fluorescence based on LPS-induced expression” value turned out to be 39%. In addition, in data set [6] (FIG. 7), the “CD86 expression, % of mean fluorescence based on LPS-induced expression” value stood at 77%. The “CD83 expression, % of mean fluorescence based on LPS-induced expression” value in data set [6] (FIG. 8) amounted to 60%. Besides, the “CD80 expression, % of mean fluorescence based on LPS-induced expression” value in data set [6] (FIG. 9) is 62%. The “cell proliferation of mouse bone marrow stem cells” value in data set [7] is “more moderate response than the diphosphorylated product”.
